Publication PMC4818757, “Small molecule inhibitors of the Dishevelled‐CXXC5 interaction are new drug candidates for bone anabolic osteoporosis therapy” (EMBO Molecular Medicine, 2016)
Like-named read-outs stand apart in the source and are kept apart here.

Biological target: T1, Dvl–CXXC5 interaction (Homo sapiens, UniProt O14640)
T1 construct: plasmid DNA encoding Dvl-1247- 341 (the Dvl PDZ domain); His-tag (TEV-cleavable) (cleaved yes); made in house; host or cells: E. coli BL21 (DE3)
T1 sequence (O14640 247-341 limits assumed): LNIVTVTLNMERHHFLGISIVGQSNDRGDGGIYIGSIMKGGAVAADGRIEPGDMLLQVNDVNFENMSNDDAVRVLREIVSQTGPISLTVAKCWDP
Experiment: Dvl–CXXC5 in vitro binding assay (FITC PolyR-DBM competition)
From the text: We tried to search small‐molecule drug candidates activating the Wnt/β‐catenin signaling on the basis of the previous study (Kim et al, 2015). To screen small molecules inhibiting the Dvl–CXXC5 interaction, an in vitro assay system (Fig 1A) was established using purified recombinant Dvl PDZ domain and FITC‐conjugated PolyR‐DBM (Dvl binding motif) (Kim et al, 2015). A chemical with inhibitory activity of Dvl–CXXC5 interaction competes with the FITC‐conjugated peptide for binding to Dvl PDZ domain, which results in a decrease in fluorescence intensity of the well containing the chemical (Fig 1A).
Figure 1 Identification and characterization of small molecules competing Dvl–CXXC5 binding in vitro • A A scheme for in vitro screening method of small molecules competing Dvl–CXXC5 binding. Briefly, purified Dvl PDZ domain was attached to the polystyrene surface of each well of 96‐well plates. Then, PolyR‐DBM (polyarginine‐conjugated Dvl binding motif tagged with FITC) (Kim et al, 2015) was added to each well and allowed to bind to the Dvl PDZ domain; 10 μM small‐molecule compound was added to each well, and the compounds competing with Dvl PZD‐PolyR‐DBM binding were measured by a microplate reader to screen the compounds reducing fluorescence signal. • B Screening results of compounds competing Dvl–CXXC5 interaction. Each 2 μM of the compounds was used for competing as described in Fig 1A. (n = 3) • C, D Primary calvaria cells were treated with 2 μM of each compound for 2 days. The cells were subjected to immunofluorescence analyses to visualize β‐catenin (C; green). The relative numbers of β‐catenin‐positive nuclei were counted (D). (n = 3) • E, F The calvariae from 4‐day‐old mice were cultured ex vivo for 7 days with 2 μM of each compound. Representative calvaria sections were visualized by H&E staining (E). The calvaria thicknesses were measured from the images using Image Pro software (F). (n = 3) Data Information: For B, D, and F, the data are the mean ± s.d. (error bars), and significance was assessed using unpaired Student's t‐test.
For the Dvl–CXXC5 in vitro binding assay, 100 μl of 5 mg/ml purified Dvl PDZ domain was added into each well of a 96‐well Maxibinding Immunoplate (SPL, Seoul, Korea) and incubated overnight in a 4°C chamber. […] After washing with PBS, the fluorescence of each well was measured using a Fluorstar Optima microplate reader (BGM Lab Technologie, Ortenberg, Germany). […]
a The Dvl-CXXC5 in vitro binding assay was performed with 0.1, 1, 3, 10, 30 and 100 µ M of each compound. The IC50 values were calculated using linear regression. b MC3T3E1 cells were cultured in differentiation media with 10 µM of each compound for 4 days and ALP activity levels were quantified to monitor osteogenic differentiation of the cells. […]

Row | reduction of fluorescence intensity (2 μM compound) | IC50 (read-out: 50% inhibition concentration (IC50) of Dvl–CXXC5 interaction) | Compound | IC50 (0.1, 1, 3, 10, 30 and 100 µM of each compound, linear regression, read-out: Dvl-CXXC5 in vitro binding IC50) | IC50 for inhibition of Dvl–CXXC5 interaction, fold lower than for KY‐02061 (vs KY‐02061)
1 | 43.7% | 24 µM | CCOC(=O)Cn1c(C(=O)OCC)cc2cc(OS(=O)(=O)c3ccc(C)cc3)ccc21 [KY‐02061] |  | 
2 |  |  | CCOC(=O)c1cc2cc(O)ccc2n1CC(=O)NCCN1CCCCC1 [KY‐02327] | 3.1 µM | 7.7 fold
